The values below come from patent publication US7267964B2, “DNA molecules encoding ligand gated ion channels from Dermacentor variabilis” (priority 2000, dated 2007).

What all share (type): cell-based, Dermacentor variabilis
In one assay the test system is DvLGIC/GluCl 1. The assay is described as follows: Two-microelectrode voltage clamp of Xenopus oocytes injected with DvLGIC/GluCl 1 RNA. The source says:
(§1) Synthesis of in vitro transcribed capped RNA—A PCR strategy was used to add the T7 promoter upstream of the initiating methionine (ATG) and a polyA^+ tail following the stop codon (TAG) of the open reading frame (ORF) of clones DvLGIC/GluCl1, DvLGIC/GluCl 11, DvLGIC/GluCl 7-1 and DvLGIC/GluCl 10-2. Amplified ORFs which contained the flanking T7 promoter and polyA^+ tail were used directly as templates in the in vitro transcription reaction (mMessage mMachine™, Ambion, Austin, Tex.). After removal of DNA template, the volume was adjusted to 100 μl with nuclease free water, and RNA purified using a G-50 Sephadex Column (Boehringer Mannheim, Indianapolis, Ind.). The elutate was extracted with an equal volume of phenol/chloroform, followed with a second chloroform extraction, precipitated with isopropyl alcohol, and resuspended in nuclease-free water to a storage concentration of 1 μg/μl.
(§2) Xenopus laevis oocytes were prepared and injected using standard methods previously described [Arena, J. P., Liu, K. K., Paress, P. S. & Cully, D. F. Mol. Pharmacol. 40, 368-374 (1991); Arena, J. P., Liu, K. K., Paress, P. S., Schaeffer, J. M. & Cully, D. F., Mol. Brain Res. 15, 339-348 (1992)]. Adult female Xenopus laevis were anesthetized with 0.17% tricaine methanesulfonate and the ovaries were surgically removed and placed in a solution consisting of (mM): NaCl 82.5, KCl 2, MgCl2 1, HEPES 5, NaPyruvate 2.5, Penicillin G. 100,000 units/L, Streptomycin Sulfate 1000 mg/L, pH 7.5 (Mod. OR-2). Ovarian lobes were broken open, rinsed several times in Mod. OR-2, and incubated in 0.2% collagenase (Sigma, Type1) in Mod. OR-2 at room temperature with gentle shaking. After 1 hour the collagenase solution was renewed and the oocytes were incubated for an additional 30-90 min until approximately 50% of the oocytes were released from the ovaries. Stage V and VI oocytes were selected and placed in media containing (mM): NaCl 96, KCl 2, MgCl2 1, CaCl2 1.8, HEPES 5, NaPyruvate 2.5, theophylline 0.5, gentamicin […], pH 7.5 (ND-96) for 16-24 hours before injection. Oocytes were injected with 50 nl of DvLGIC/GluCl1 or DvLGIC/GluCl 7-1 RNA at a concentration of 0.2 mg/ml. Oocytes were incubated at 18° C. for 1-6 days in ND-96 before recording.
(§3) Recordings were made at room temperature in modified ND-96 consisting of (mM): NaCl 96, MgCl2 1, CaCl2 0.1, BaCl2 3.5, HEPES 5, pH 7.5. Oocytes were voltage clamped using a Dagan CA1 two microelectrode amplifier (Dagan Corporation, Minneapolis, Minn.) interfaced to a Macintosh 7100/80 computer. The current passing electrode was filled with 0.7 M KCl, 1.7 M KCitrate, and the voltage recording electrode was filled with 1 M KCl. Throughout the experiment oocytes were superfused with modified ND-96 (control solution) or with ND-96 containing potential channel activators and blockers at a rate of approximately 3 ml/min. Data were acquired at 100 Hz and filtered at 33.3 Hz using Pulse software from HEKA Elektronik (Lambrecht, Germany). All recordings were performed from a holding potential of either 0 or −30 mV.

A further assay relates to DvLGIC/GluCl 11. The assay is described as follows: DvLGIC/GluCl 11 expressed in Xenopus oocytes, current response. To be noted: concentration not given.
Chain of DvLGIC/GluCl 11 (as listed by the source): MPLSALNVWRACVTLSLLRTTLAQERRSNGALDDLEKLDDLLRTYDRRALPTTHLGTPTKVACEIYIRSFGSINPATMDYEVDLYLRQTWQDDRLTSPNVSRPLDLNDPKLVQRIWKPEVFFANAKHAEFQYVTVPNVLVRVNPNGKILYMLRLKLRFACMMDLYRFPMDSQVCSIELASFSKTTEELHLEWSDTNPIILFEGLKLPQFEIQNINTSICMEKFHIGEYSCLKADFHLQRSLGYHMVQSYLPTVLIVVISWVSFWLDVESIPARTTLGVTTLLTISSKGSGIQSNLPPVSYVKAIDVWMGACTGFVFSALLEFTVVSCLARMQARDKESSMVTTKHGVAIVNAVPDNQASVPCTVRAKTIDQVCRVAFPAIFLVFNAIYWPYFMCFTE
Description: as §1
(§4) Xenopus laevis oocytes were prepared and injected using standard methods previously described [Arena, J. P., Liu, K. K., Paress, P. S. & Cully, D. F. Mol. Pharmacol. 40, 368-374 (1991); Arena, J. P., Liu, K. K., Paress, P. S., Schaeffer, J. M. & Cully, D. F., Mol. Brain Res. 15, 339-348 (1992)]. […]

In the next assay the test system is DvLGIC/GluCl 10-2. The assay is described as follows: DvLGIC/GluCl 10-2 expressed in Xenopus oocytes, current response. The following applies: concentration not given.
Description: as §1, §4

In the next assay the test system is DvLGIC/GluCl 7-1. The assay is described as follows: Two-microelectrode voltage clamp of Xenopus oocytes injected with DvLGIC/GluCl 7-1 RNA.
Description: as §1, §2, §3

Setting [1] is: 1 μM ivermectin phosphate, holding potential 0 or −30 mV.
[2] abbreviates: Xenopus oocytes, concentration not given.
The mark [3] stands for this setting: after 1 μM ivermectin phosphate.

For ivermectin phosphate, the “current in response to application” value in the assay on DvLGIC/GluCl 1 (setting [1]) and in the assay with DvLGIC/GluCl 7-1 (setting [1]) was “slowly activating current” in each case. Also, the “concentration at which current activation was maximal” value is 1 µM in the assay with DvLGIC/GluCl 1 (Xenopus oocytes injected with DvLGIC/GluCl 1 mRNA, FIG. 9) and approximately 1 µM with DvLGIC/GluCl 7-1 (DvLGIC/GluCl 7-1 expressed in Xenopus oocytes, FIG. 10). Moreover, the “current in response to addition” value in the assay with DvLGIC/GluCl 1 (setting [2]), in the assay with DvLGIC/GluCl 11 and in the assay on DvLGIC/GluCl 7-1 (setting [2]) was “exhibit a current” throughout. For the same molecule, the “reversibility of current upon wash-out” value with DvLGIC/GluCl 1 (setting [3]) and in the assay with DvLGIC/GluCl 7-1 (setting [3]) was “irreversible” each time. Also, the “responsiveness of the channel to the substance” value with DvLGIC/GluCl 10-2 is “not responsive”.
Regarding `N[C@@H](CCC(=O)O)C(=O)O` [glutamate], the “current in response to application” value in the assay on DvLGIC/GluCl 1 (1 mM glutamate) and with DvLGIC/GluCl 7-1 (1 mM glutamate) was “did not activate a current” throughout. Moreover, the “responsiveness of the channel to the substance” value in the assay with DvLGIC/GluCl 10-2 was “not responsive”.
